Tests used:
[1] = test system: Phospho-ERK1/2(THR202/TYR204) in NCI-H358 cells express KRAS G12C; assay: Phospho-ERK1/2(THR202/TYR204) HTRF assay; type: cell-based; conditions: Homo sapiens; NCI-H358, 2 hours incubation; read-out: p-ERK inhibition in NCI-H358 IC50
Protocol: NCI-H358 cells express KRAS G12C were cultured in RPMI 1640 medium (Gibco) containing 10% fetal bovine serum (Gibco). Cells in culture medium were plated in 96-well plates at a concentration of 40,000 cells/well and allowed to attach overnight. The next day, culture medium was removed and added compounds diluted in assay medium (RPMI 1640, 0.1% EFBS). After 2 hours incubation in a 37° C./5% CO2 cell incubator, the assay medium was removed, then 50 μL of 1× supplemented lysis buffer (Cisbio) was added and the plates were incubated at 25° C. for 45 min with shaking. 10 μL of cell lysates from the 96-well plates were transferred to a 384-well plate (Greiner) containing 2.5 µL/well HTRF® pre-mixed antibodies (Cisbio 64AERPEH).
Incubate 4 hours at 25° C. and then read HTRF signals on Tecan Spark multimode microplate reader. The data were analyzed using a 4-parameter logistic model to calculate IC50 values.

KRAS G12C = target: T1, KRAS G12C (Homo sapiens, UniProt P01116, G12C); assay: SOS1 catalyzed nucleotide exchange assay (TR-FRET); type: biochemical; conditions: GDP-loaded HIS-KRAS(G12C), 1 hour pre-incubation with compound
T1 construct: HIS-KRAS (G12C, aa 2-185, Sino biological); purchased Sino biological
T1 sequence (P01116 2-185 isoform P01116-2 G12C): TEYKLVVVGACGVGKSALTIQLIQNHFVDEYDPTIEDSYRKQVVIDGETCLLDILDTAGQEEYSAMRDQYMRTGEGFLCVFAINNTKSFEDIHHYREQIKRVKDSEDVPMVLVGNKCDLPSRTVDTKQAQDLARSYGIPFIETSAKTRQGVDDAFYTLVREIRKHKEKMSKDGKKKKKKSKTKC
Protocol: 1. SOS1 Catalyzed Nucleotide Exchange Assay
HIS-KRAS (G12C, aa 2-185, Sino biological) was diluted to […] EDTA buffer (20 mM HEPES, pH 7.4, 50 mM NaCl, 10 mM EDA, 0.01% (v/v) Tween-20) and incubated for 30 min at 25° C. The EDTA pretreated HIS-KRAS(G12C) was diluted to 12 nM in assay buffer (25 mM HEPES, pH 7.4, 120 mM NaCl, 5 mM MgCl2, 1 mM DTI, 0.01% (v/v) Tween 20, 0.1% (w/v) BSA) containing 120 nM GDP(Sigma) and Mab Anti 6HIS-Tb cryptate Gold(Cisbio) and incubated for 1 hour at 25° C. to prepare GDP-loaded HIS-KRAS(G12C). The GDP-loaded HIS-KRAS(G12C) was pre-incubation with diluted compounds in a 384-well plate (Greiner) for 1 hour, then purified SOS 1ExD (Flag tag, aa 564-1049) and BODIPY™FL GTP (Invitrogen) were added to the assay wells (Final concentration: 3 nM HIS-KRAS(G12C), 2 μM SOS1 ExD, 80 nM BODIPY™FL GTP, 21 ng/mL MAb Anti 6HS-Tb cryptate Gold) and incubated for 4 hours at 25° C. TR-FRET signals were then read on Tecan Spark multimode microplate reader. The parameters were F486: Excitation 340 (35) nm, Emission 486 (10) nm, Lag time 100 μs, Integration time […]; F515: Excitation 340 (35) nm, Emission 515 (10) nm, Lag time […], Integration time 200 s. TR-FRET ratios for each individual wells were calculated by equation: TR-FRET ratio=(Signal F515/Signal F486)*10000. Then the data were analyzed using a 4-parameter logistic model to calculate IC50 values.

[2] = test system: NCI-H358 cells express KRAS G12C; assay: Cell growth inhibition assay (CCK-8); type: cell-based; conditions: Homo sapiens, 144 h; NCI-H358, 6 days incubation
Protocol: 3. Cell Growth inhibition assay
NCI-H358 cells express KRAS G12C were cultured in RPMI 1640 medium (Gibco) containing 10% fetal bovine serum (Gibco). Cells in culture medium were plated in 96-well plates at a concentration of 3000 cells/well ([…]) and allowed to attach overnight. The next day, compounds were diluted in culture medium and added to the plates. After 6 days incubation in a 37° C./5% CO2 cell incubator, the medium was removed, then 100 μL of 1×CCK-8 (MCE) in culture medium was added in each well. The plates were incubated 1.5-2 hours in a 37° C./5% CO2 cell incubator. OD450 signals were read on Tecan Spark multimode microplate reader and analyzed using a 4-parameter logistic model to calculate IC50 values.

Structure (SMILES) | IC50 [1] | IC50 (KRAS G12C) | IC50 [2]
C=CC(=O)N1CCN(c2nc(O[C@H]3CCCC[C@@H]3N(C)C)nc3c2CCN(c2cccc4ccccc24)C3)CC1CC#N (stereo partly drawn) [Compound 60, 2-(1-acryloyl-4-(2-(((1S,2S)-2-(dimethylamino)cyclohexyl)oxy)-7-(naphthalen-1-yl)-5,6,7,8-tetrahydropyrido[3,4-d]pyrimidin-4-yl)piperazin-2-yl)acetonitrile] | 7120 nM |  | 
C=C(F)C(=O)N1CCN(c2nc(OCC3(CN(C)C)CC3)nc3c2CCN(c2cccc(C)c2C)C3)CC1CC#N (centres unmarked) [Compound 80, 2-(4-(2-((1-((dimethylamino)methyl)cyclopropyl)methoxy)-7-(2,3-dimethylphenyl)-5,6,7,8-tetrahydropyrido[3,4-d]pyrimidin-4-yl)-1-(2-fluoroacryloyl)piperazin-2-yl)acetonitrile] | > 500 nM | 285 nM | 
C=CC(=O)N1CCN(c2nc(OCC3(CN(C)C)CC3)nc3c2CCN(c2cccc4scnc24)C3)CC1CC#N (centres unmarked) [Compound 52, 2-(1-acryloyl-4-(7-(benzo[d]thiazol-4-yl)-2-((1-((dimethylamino)methyl)cyclopropyl)methoxy)-5,6,7,8-tetrahydropyrido[3,4-d]pyrimidin-4-yl)piperazin-2-yl)acetonitrile] | > 500 nM | 485 nM | 
C=CC(=O)N1CCN(c2nc(OC3CCC(N(C)C)C3)nc3c2CCN(c2cccc4ccccc24)C3)CC1CC#N (centres unmarked) [Compound 13, 2-(1-acryloyl-4-(2-((3-(dimethylamino)cyclopentyl)oxy)-7-(naphthalen-1-yl)-5,6,7,8-tetrahydropyrido[3,4-d]pyrimidin-4-yl)piperazin-2-yl)acetonitrile] | 1210 nM | 684 nM | 
C=CC(=O)N1CCN(c2nc(OCC3(N4CCCC4)CC3)nc3c2CCN(c2cccc4ccccc24)C3)CC1CC#N (centres unmarked) [Compound 32, 2-(1-acryloyl-4-(7-(naphthalen-1-yl)-2-((1-(pyrrolidin-1-yl)cyclopropyl)methoxy)-5,6,7,8-tetrahydropyrido[3,4-d]pyrimidin-4-yl)piperazin-2-yl)acetonitrile] |  |  | 696 nM
C=CC(=O)N1CCN(c2nc(OCC3CCC(N4CCCC4)C3)nc3c2CCN(c2cccc4ccccc24)C3)CC1CC#N (centres unmarked) [Compound 33, 2-(1-acryloyl-4-(7-(26aphthalene-1-yl)-2-((3-(pyrrolidin-1-yl)cyclopentyl)methoxy)-5,6,7,8-tetrahydropyrido[3,4-d]pyrimidin-4-yl)piperazin-2-yl)acetonitrile] | 302 nM |  | 652 nM
C=CC(=O)N1CCN(c2nc(OCC3(CN(C)C)CC3)nc3c2CCN(c2c(N)cccc2F)C3)CC1CC#N (centres unmarked) [Compound 55, 2-(1-acryloyl-4-(7-(2-amino-6-fluorophenyl)-2-((1-((dimethylamino)methyl)cyclopropyl)methoxy)-5,6,7,8-tetrahydropyrido[3,4-d]pyrimidin-4-yl)piperazin-2-yl)acetonitrile] |  | > 500 nM | 
C=CC(=O)N1CCN(c2nc(OCC3CCC(N(C)C)C3)nc3c2CCN(c2cccc(F)c2Cl)C3)CC1CC#N (centres unmarked) [Compound 29, 2-(1-acryloyl-4-(7-(2-chloro-3-fluorophenyl)-2-((3-(dimethylamino)cyclopentyl)methoxy)-5,6,7,8-tetrahydropyrido[3,4-d]pyrimidin-4-yl)piperazin-2-yl)acetonitrile] | > 1000 nM |  | 
C/C=C/C(=O)N1CCN(c2nc(OCC3(CN(C)C)CC3)nc3c2CCN(c2cccc(C)c2C)C3)CC1CC#N (centres unmarked) [Compound 82, (E)-2-(1-(but-2-enoyl)-4-(2-((1-((dimethylamino)methyl)cyclopropyl)methoxy)-7-(2,3-dimethylphenyl)-5,6,7,8-tetrahydropyrido[3,4-d]pyrimidin-4-yl)piperazin-2-yl)acetonitrile] | > 500 nM | 211 nM | 
C=CC(=O)N1CCN(c2nc(OC3CCCC3N3CCN(C)CC3)nc3c2CCN(c2cccc4ccccc24)C3)CC1CC#N (centres unmarked) [Compound 16, 2-(1-acryloyl-4-(2-((2-(4-methylpiperazin-1-yl)cyclopentyl)oxy)-7-(naphthalen-1-yl)-5,6,7,8-tetrahydropyrido[3,4-d]pyrimidin-4-yl)piperazin-2-yl)acetonitrile] | 7060 nM |  | 
C=CC(=O)N1CCN(c2nc(O[C@H]3CC[C@H](N(C)C)CC3)nc3c2CCN(c2cccc4ccccc24)C3)CC1CC#N (some centres unmarked) [Compound 1, 2-(1-acryloyl-4-(2-(((1r,4r)-4-(dimethylamino)cyclohexyl)oxy)-7-(naphthalen-1-yl)-5,6,7,8-tetrahydropyrido[3,4-d]pyrimidin-4-yl)piperazin-2-yl)acetonitrile] | 3200 nM |  | 
C=CC(=O)N1CCN(c2nc(OCC3(CN(C)C)CC3)nc3c2CCN(c2cccc4ccn(C)c(=O)c24)C3)CC1CC#N (centres unmarked) [Compound 2, 2-(1-acryloyl-4-(2-((1-((dimethylamino)methyl)cyclopropyl)methoxy)-7-(2-methyl-1-oxo-1,2-dihydroisoquinolin-8-yl)-5,6,7,8-tetrahydropyrido[3,4-d]pyrimidin-4-yl)piperazin-2-yl)acetonitrile] |  | > 500 nM | 
C=C(F)C(=O)N1CCN(c2nc(OCC3(CN4CCC(F)(F)C4)CC3)nc3c2CCN(c2cccc4cccc(C)c24)C3)CC1CC#N (centres unmarked) [Compound 81, 2-(4-(2-((1-((3,3-difluoropyrrolidin-1-yl)methyl)cyclopropyl)methoxy)-7-(8-methylnaphthalen-1-yl)-5,6,7,8-tetrahydropyrido[3,4-d]pyrimidin-4-yl)-1-(2-fluoroacryloyl)piperazin-2-yl)acetonitrile] |  | > 500 nM | 
C=CC(=O)N1CCN(c2nc(OCC3(CN(C)C)CC3)nc3c2CCN(c2cccc4c2OCC4)C3)CC1CC#N (centres unmarked) [Compound 53, 2-(1-acryloyl-4-(7-(2,3-dihydrobenzofuran-7-yl)-2-((1-((dimethylamino)methyl)cyclopropyl)methoxy)-5,6,7,8-tetrahydropyrido[3,4-d]pyrimidin-4-yl)piperazin-2-yl)acetonitrile] | > 500 nM | 174 nM | 
C=CC(=O)N1CCN(c2nc(OC3CCCCC3N(C)C)nc3c2CCN(c2cccc4ccccc24)C3)CC1CC#N (centres unmarked) [Compound 11, 2-(1-acryloyl-4-(2-((2-(dimethylamino)cyclohexyl)oxy)-7-(naphthalen-1-yl)-5,6,7,8-tetrahydropyrido[3,4-d]pyrimidin-4-yl)piperazin-2-yl)acetonitrile] | 9860 nM |  | 
C=CC(=O)N1CCN(c2nc(OCC3(N(C)C)CCC3)nc3c2CCN(c2cccc4ccccc24)C3)CC1CC#N (centres unmarked) [Compound 9, 2-(1-acryloyl-4-(2-((1-(dimethylamino)cyclobutyl)methoxy)-7-(naphthalen-1-yl)-5,6,7,8-tetrahydropyrido[3,4-d]pyrimidin-4-yl)piperazin-2-yl)acetonitrile] | 1150 nM |  | 888 nM
C=CC(=O)N1CCN(c2nc(OCC3CC3CN(C)C)nc3c2CCN(c2cccc4ccccc24)C3)CC1CC#N (centres unmarked) [Compound 19, 2-(1-acryloyl-4-(2-((2-((dimethylamino)methyl)cyclopropyl)methoxy)-7-(naphthalen-1-yl)-5,6,7,8-tetrahydropyrido[3,4-d]pyrimidin-4-yl)piperazin-2-yl)acetonitrile] | 748 nM | 372 nM | 
C=CC(=O)N1CCN(c2nc(OCCC3CCCC3N(C)C)nc3c2CCN(c2cccc4ccccc24)C3)CC1CC#N (centres unmarked) [Compound 21, 2-(1-acryloyl-4-(2-(2-(2-(dimethylamino)cyclopentyl)ethoxy)-7-(naphthalen-1-yl)-5,6,7,8-tetrahydropyrido[3,4-d]pyrimidin-4-yl)piperazin-2-yl)acetonitrile] | > 1000 nM |  | 

— patent publication US20210040089A1, “KRAS MUTANT PROTEIN INHIBITORS” (Jacobio Pharmaceuticals Co., Ltd., priority 2019, published 2021)
